Data on 88 compounds can be found in a melting point compilation (Tetko et al.; mined from patent text by program, amines drawn as free bases though some values may be those of a salt).

Regarding `COc1ccc(C(=O)C2=C(O)C(=O)N(c3nnc(C)s3)C2c2ccc(O)cc2)cc1` (stereo not drawn), the melting point (in general, the temperature of the solid-liquid transition) stood at 251 °C.
Then `Cc1cc(Br)cnc1CCCCNc1ncc(Cc2ccc(O)cc2)c(=O)[nH]1`, with 232 to 234 °C.
For `CC(C)(C)OC(=O)CN1CC(c2ccco2)SCC(N)C1=O` (stereo not drawn) the value was 90 to 92 °C.
Compound `CC(=O)N[C@@H](C)COC1CCN(c2nc3cc(OCC4CC4)ccc3o2)CC1` registered a melting point of 99 to 100 °C.
`Cc1cc(C(=O)N2Cc3cccn3Cc3ccccc32)cc(C)c1-n1c(C)ccc1C` registered a melting point of 104 to 106 °C.
Then `COc1ccccc1Sc1ccc(C=O)c(Cl)c1Cl`, with 137 to 139 °C; and `CCn1nc(OC2COCCC2=O)c(-c2ccc(F)cc2)c1-c1ccc(S(C)(=O)=O)cc1` (stereo not drawn), with 181 to 182 °C.
For `O=c1nc(-c2cccc(-c3cccs3)n2)sc2ccccc12` the value was 222 to 223 °C; for `COc1ccccc1NC(=O)Nc1nc(Cl)nc(N(CCC(=O)O)Cc2cccc(C)c2)n1`, 205 °C.
For `Fc1ccc(-c2cnc(SC(F)(F)F)nc2-c2ccc(F)cc2)cc1` the value was 80 to 83 °C; for `Cc1ncc([N+](=O)[O-])n1CCN1C(=O)CC(C)(C)CC1=O`, 153 to 154 °C.
`CN=C(NC)Nc1nc(CSCCNC2=NS(=O)(=O)N=C2NC)cs1` registered a melting point of 132 to 137 °C.
In turn, `CCCCCCC(CO)c1nc([N+](=O)[O-])c[nH]1` (stereo not drawn) gave a melting point of 83 to 84 °C.
For `CCCCc1ccc(-c2cc(Cl)c(C#N)cn2)cc1`, the melting point is 107 °C.
For `Cc1ccn2c(C)c(CCc3ccc4nc(C)oc4c3)nc2c1` the value was 83 to 85 °C.
For `O=NN(CCCl)C(=O)NC1(C(=O)Nc2nncs2)CCCC1` the value was 160 °C.
Then `Cc1ccc(N2C(=O)C(O)=C(C(=O)c3ccc(C(C)C)cc3)C2c2ccc(OC(F)(F)F)cc2)cn1` (stereo not drawn), with 214 to 218 °C; and `COc1c(Cl)ccc(-c2nc(C(=O)OCc3ccc(OC(F)(F)F)cc3)c(Cl)c(N)c2F)c1F`, with 155 to 156 °C; and `c1ccc2c3c4c(nc2c1)CCCC4SCCN3` (stereo not drawn), with 171 to 175 °C.
`CCOC(=O)c1cn(C)nc1OCc1ccc(OCc2nc(-c3ccco3)oc2C)c(OC)c1` registered a melting point of 117 to 118 °C.
Regarding `CC(=O)c1cc(S(=O)(=O)c2cccc(F)c2)ccc1OC[C@@H]1CO1`, the melting point was in the range of 113 to 115 °C.
Then `COC(=O)C(=C/c1c(OC)cc(OC)cc1OC)/C(=C\c1ccccc1)C(N)=O`, with 169 to 171 °C.
For `CCCCOc1cccc2oc(-c3ccccc3)cc(=O)c12` the value was 96 to 97 °C.
Then `O=C(c1nc(NNNc2ccccc2)nc(C(=O)c2ccccc2O)n1)c1ccccc1O`, with 170 °C; and `Cc1ccc2c(c1)CC1(CCC(=O)CC1)C21OCCO1`, with 124 to 127 °C.
`CCC[C@H]1CC[C@H]([C@H]2CC[C@H](c3cc(F)c(C[C@H](C)c4ccccc4)c(F)c3)CC2)CC1` returned a melting point of 93.7 °C.
For `Nc1ccc(CNC(=O)C2Cc3ccccc3N2S(=O)(=O)c2ccc(-c3cccc(C(F)(F)F)c3)cc2)cc1` (stereo not drawn) the value was 84 °C; for `COc1ccc(NN=C2CCCCC2=O)cc1`, 177 °C; for `C=Cn1cc(C(=O)O)c(=O)c2cc(F)c(N3CCC(NC)C3)nc21` (stereo not drawn), 160 to 161 °C.
For `CNCC(=O)N1c2ccccc2N2CCc3cccc(c32)C1C` (stereo not drawn) the value was 106 to 110 °C; for `CCc1ccc(Nc2c(F)c(F)cc(F)c2F)c(CC(=O)O)c1`, 165 to 169 °C.
Then `Fc1cc(F)c2c(c1)CC(n1cc[nH]c1=S)C2` (stereo not drawn), with 185 to 186 °C.
In turn, `Cc1nc(NC(=O)c2cnn3c(C(F)F)cc(-c4ccc(C(F)(F)F)cc4)nc23)sc1S(=O)(=O)NC(C)(C)CO` came in with a melting point of 268 °C.
For the compound `c1ccc(C2CCCC2OCC2CO2)cc1` (stereo not drawn), the melting point was found to be 31 °C.
For `CCCc1nc2c(N)nc3ccccc3c2n1CCCCCC(N)=O` the value was 210 to 211 °C; for `N#Cc1cc2c(-c3cccc(NC(=O)c4cccc(C(F)(F)F)c4)c3)ncnc2s1`, 210 to 212 °C.
Then `COC(=O)CCn1c(C)c(Cn2ccnc2)c2cc(CCC(=O)O)ccc21`, with 134 to 137 °C; and `CCCCCCCCCc1ccc(-c2ccc(OCC(OC3CCCCO3)C(F)(F)F)nn2)cc1` (stereo not drawn), with 96.1 °C; and `O=C(O)C1CSC(c2ccccc2OCCCO[N+](=O)[O-])N1` (stereo not drawn), with 131 to 134 °C.
For `COc1ccc(CN2C(=O)C(C)(c3cc(COCCN4CCOCC4)ccc3Cl)c3cc(Cl)ccc32)c(OC)c1` (stereo not drawn) the value was 81 °C; for `O=C(NCC1CC1)c1ccc(-c2ccc3nnn(Cc4ccc5ncccc5c4)c3n2)cc1F`, 120 to 122 °C.
`CCOCCOC(=O)C(=O)Nc1nc(-c2ccc(C(C)(C)C)cc2)cs1` had a melting point of 158 to 160 °C.
With `CCOC(=O)C=Cc1cc(C=CC(=O)OCC)cc(CO)c1`, the melting point is 68 to 69.5 °C.
Consider `c1ccc(COc2ccc3c(ccn3Nc3ccncc3)c2)cc1`, for which the melting point fell in the range of 143 to 145 °C.
Then `FC(F)(F)Oc1ccc(-c2ccc(OCc3ccccc3)cc2)cc1`, with 136 to 137 °C.
Turning to `O=C(O)CCNC(=O)CCCCC1CCSS1` (stereo not drawn), the melting point is 74 to 76 °C.
Regarding `CNC(=S)C1(c2cccnc2)CCCCC1=O` (stereo not drawn), the melting point was 188 to 190 °C.
Then `COc1ccc(C)cc1NC(=O)Nc1ccc2c(c1)CCN(C(=O)Nc1ccc(OCC(O)CO)cc1Cl)C2` (stereo not drawn), with 119 to 121 °C; and `COc1c(Cl)ccc(-c2nc(N)c(Cl)c(C(=O)O)n2)c1F`, with 172 to 173 °C; and `CNC(=O)c1cc2c(Oc3ccc(-n4cncn4)cc3)cncc2s1`, with 214 to 215 °C.
For `C=CCOCC(C)OC(=O)COc1ccc(Cl)c2cccnc12` (stereo not drawn) the value was 59 °C.
Regarding `O=C(O)c1ccc(CCCOCCCCCCNCC(O)c2ccc(O)c(CO)c2)cc1` (stereo not drawn), the melting point was in the range of 50 to 58 °C.
For `C[Si](C)(C)c1ccc(Cl)c(Cl)c1C(=O)O` the value was 117 to 119 °C; for `Cn1cc(S(=O)(=O)NC(C)(C)C)cc1C=O`, 97 to 98 °C; for `Clc1ccc(Oc2ccccc2Oc2ccc(Cl)cn2)nc1`, 82 to 84 °C.
For `C1=C(c2cccs2)CCN(CCCCc2c[nH]c3cc4c(cc23)OCO4)C1` the value was 86 °C; for `CCCN1C(=O)N2CCCN=C2c2c1ncn2C`, 107 to 109 °C.
For `O=C(CCN1CCNC1=O)N1CCC(C2c3ncc(Br)cc3CCc3cc(Cl)cc(Br)c32)CC1` (single isomer, unassigned; (+)) the value was 202 to 203 °C.
Take `Cc1cccc(C(=O)Nc2ccc3c(c2)CCC(NCc2ccccn2)CC3)c1-c1ccc(C(F)(F)F)cc1` (stereo not drawn): the melting point was 104 to 106 °C.
Then `CCOc1ccccc1NC(=O)C(C)(C)CCCOc1cc(C)ccc1C`, with 59 to 60 °C.
Then `CCOC(=O)c1ccc2[nH]c3c(c2c1)CC(N(C)C)CC3` (stereo not drawn), with 188 to 190 °C; and `Fc1ccc2scc(Br)c2c1`, with 79 to 80 °C; and `O=C(Oc1ccccc1)N1Cc2ccccc2C(c2ccccc2Cl)c2ccccc21` (stereo not drawn), with 95 to 99 °C.
With `CCCC[C@H](NC(=O)[C@H](CC(C)C)NC(=O)OCc1ccccc1)C(=O)CCCc1ccco1`, the melting point was in the range of 62 to 64 °C.
For `CCCC(=O)Nc1cc(Oc2ccccc2)ccc1NC(=NC(=O)OCC)SC` the value was 118 °C.
For `CCOC(=NC(=O)Nc1ccc(OC(F)(F)F)cc1)c1ccccc1F` the value was 93 to 95 °C; for `COc1cc2c(c3c1OC(C)(C)C3)C(c1cccc(N3CCN(C(=O)OC(C)(C)C)S3(=O)=O)c1)=NC(C)(C)C2`, 157 to 159 °C.
For `CCOC(C#N)c1ccc2ccccc2c1` (stereo not drawn) the value was 53 to 54 °C; for `COc1cc(C=CC(=O)CC(C)=O)ccc1O`, 146 to 147 °C.
`CN1CCC(C2(O)c3ccccc3C=Cn3ccnc32)CC1` (stereo not drawn): the melting point turned out to be 155 °C.
Then `COC(=O)C1C(c2ccc(Br)cc2)CC2CCC1N2C` (stereo not drawn), with 114 to 116 °C.
Then `CSc1c(O[C@H]2CC[C@@H](N(C)C)CC2)ccc2[nH]ncc12`, with 139 to 140 °C.
Then `CC(C(=O)c1ccc(Cl)cc1)N1CCC(O)(Cc2ccccc2)CC1` (stereo not drawn), with 136 °C; and `O=C(O)c1ccc2oc(-c3ccc(O)cc3)cc2c1`, with greater than 300 °C; and `CC=NN(C(=O)c1ccccc1)c1ccc(OC)cc1`, with 68 to 70 °C.
As for `Cc1ccc(C)n1-c1ccc(CC#N)cc1`, the melting point lay in the range of 112 to 113 °C.
For `C=CCOC(=O)c1c(Cl)c(OC)cc(O[Si](C)(C)C(C)(C)C(C)C)c1C=O` the value was 97 °C.
Then `COCCOc1ccc(/C=C/C(=O)NS(=O)(=O)c2ccc(F)cc2)c(Oc2ncc(C(F)(F)F)cc2Cl)c1`, with 183 to 184 °C; and `O=C1NCCn2c1nc1c2CCCC1`, with greater than 250 °C; and `OC(Cc1ccccn1)(c1ccccc1)c1ccccc1`, with 147 to 151 °C.
Then `CCOP(=O)(CC(Nc1cccnc1)c1cc(OC)c(OC)c(OC)c1)OCC` (stereo not drawn), with 104 to 106 °C; and `CCN(CC)CCOC1c2ccccc2C(=O)N1c1ccccc1` (stereo not drawn), with 146 to 147 °C; and `CC(C)N(NC(=O)c1ccc(Cl)c(Cl)c1)C(=O)c1ccccc1`, with 157 °C.
Turning to `CS(=O)(=O)c1ccc(-c2oc3ccccc3c(=O)c2-c2ccc(F)cc2)cc1`, the melting point was in the range of 98 to 100 °C.
Then `N#Cc1ccc(F)cc1-c1ccco1`, with 55 to 56 °C; and `Cn1nc(-c2ccc(Cl)cc2Cl)cc1OC(F)F`, with 35 °C.
For `COc1ccc(-c2nn(CC(C)C)c3c(F)cccc23)c(OC)c1` the value was 92 to 93 °C; for `CC1(C)CC(=O)Nc2cc3nc(-c4cc5ccccc5[nH]4)[nH]c3cc21`, 264 to 267 °C.
